Source: patent US6706276B2, “Compositions and methods for trapping and inactivating pathogenic microbes and spermatozoa” (Rush-Presbyterian-St. Luke's Medical Center, priority 2000, dated 2004)
Marks after values point to notes of the source that are not given here.

Experiments:
[1] = tested on: HSV-2 strain 186; assay: Genital herpes infection in the mouse model; assay type: in vivo, mice; settings: Table IV, 20 sec before virus inoculation; for Protected Against Disease, Number / Protected Against Infection, Number: 15 inoculated
[2] = tested on: vaginal/cervical epithelial and other cells; settings: in vitro; cited from earlier work

In the case of nonoxynol-9 [N-9], the “Protected Against Disease, %” value ([1]; N-9 5% in PBS) is reported as 40^d %, the “Protected Against Infection, %” value ([1]; N-9 5% in PBS) is reported as 13% and the “Protected Against Disease, Number” value ([1]; N-9 5% in PBS) is reported as 6. The “Protected Against Infection, Number” value ([1]; N-9 5% in PBS) was 2, the “Protected Against Disease, %” value ([1]; N-9 50% in PBS) was 100^c % and the “Protected Against Infection, %” value ([1]; N-9 50% in PBS) was 93^c %. For the same substance, the “Protected Against Disease, Number” value ([1]; N-9 50% in PBS) was 15, the “Protected Against Disease, %” value ([1]; N-9 100% in PBS) was 100^c % and the “Protected Against Infection, %” value ([1]; N-9 100% in PBS) was 93^c %. For the same substance, the “Protected Against Disease, Number” value ([1]; N-9 100% in PBS) was 15, the “Protected Against Infection, Number” value ([1]; N-9 100% in PBS) was 14 and the “Protected Against Infection, Number” value ([1]; N-9 in PBS) was 14. For the same substance, the “lowest concentration injuring cells” value [2] was “about 0.0005%”.
